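Five compound concentrations were applied to cells in 96-well plates for 48 hours; endpoints were derived by simple linear interpolation of the resulting dose-response curve. GI50: concentration for 50% inhibition of growth.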 The source made the active and inactive calls. Cut-off read from the data, not from the text of the source: active = GI50 up to about 1.1 µM and inactive = higher.
Assays:
Assay in all cases: growth of human tumour cells (NCI), 48 h
HL-60 = test system: HL-60
A549 = test system: A549
SF-268 = test system: SF-268
RXF 393 = test system: RXF 393
U-251 = test system: U-251
CCRF-CEM = test system: CCRF-CEM
UO-31 = test system: UO-31
OVCAR-4 = test system: OVCAR-4
UACC-257 = test system: UACC-257
HT-29 = test system: HT-29
KM12 = test system: KM12
SK-MEL-5 = test system: SK-MEL-5
LOX IMVI = test system: LOX IMVI
SK-MEL-2 = test system: SK-MEL-2
HOP-92 = test system: HOP-92
HCT-116 = test system: HCT-116
SN12C = test system: SN12C
SF-295 = test system: SF-295
NCI-H460 = test system: NCI-H460
HOP-62 = test system: HOP-62

Compound | GI50 (HL-60) | GI50 (A549) | GI50 (SF-268) | GI50 (RXF 393) | GI50 (U-251) | GI50 (CCRF-CEM) | GI50 (UO-31) | GI50 (OVCAR-4) | GI50 (UACC-257) | GI50 (HT-29) | GI50 (KM12) | GI50 (SK-MEL-5) | GI50 (LOX IMVI) | GI50 (SK-MEL-2) | GI50 (HOP-92) | GI50 (HCT-116) | GI50 (SN12C) | GI50 (SF-295) | GI50 (NCI-H460) | GI50 (HOP-62)
CCOC(=O)C(NC(=O)CC)(Nc1ccccc1OC)C(F)(F)F (centres undefined) | > 100 µM (inactive) | > 100 µM (inactive) | > 100 µM (inactive) | > 100 µM (inactive) | > 100 µM (inactive) | > 100 µM (inactive) | > 100 µM (inactive) | > 100 µM (inactive) | > 100 µM (inactive) | > 100 µM (inactive) | > 100 µM (inactive) | > 100 µM (inactive) | > 100 µM (inactive) | > 100 µM (inactive) | > 100 µM (inactive) | > 100 µM (inactive) | > 100 µM (inactive) | > 100 µM (inactive) | > 100 µM (inactive) | –
O=c1c(Cc2c(O)oc3cc(O)ccc3c2=O)c(O)oc2cc(O)ccc12 | > 100 µM (inactive) | > 100 µM (inactive) | > 100 µM (inactive) | > 100 µM (inactive) | > 100 µM (inactive) | 56 µM (inactive) | 31.9 µM (inactive) | 56.8 µM (inactive) | > 100 µM (inactive) | > 100 µM (inactive) | – | 41.8 µM (inactive) | > 100 µM (inactive) | > 100 µM (inactive) | > 100 µM (inactive) | > 100 µM (inactive) | > 100 µM (inactive) | > 100 µM (inactive) | > 100 µM (inactive) | > 100 µM (inactive)
COc1ccc(/C=N/N=C(N)N)c(C(=O)O)c1OC | > 100 µM (inactive) | > 100 µM (inactive) | > 100 µM (inactive) | > 100 µM (inactive) | > 100 µM (inactive) | > 100 µM (inactive) | > 100 µM (inactive) | > 100 µM (inactive) | > 100 µM (inactive) | > 100 µM (inactive) | > 100 µM (inactive) | > 100 µM (inactive) | – | – | – | > 100 µM (inactive) | > 100 µM (inactive) | > 100 µM (inactive) | > 100 µM (inactive) | –
COc1nc(Cl)c(Cl)c(Cl)n1.COc1nc(Cl)nc(Cl)c1Cl | 5.47 µM (inactive) | 18.1 µM (inactive) | 6.18 µM (inactive) | 10.7 µM (inactive) | 3.78 µM (inactive) | 2.7 µM (inactive) | 0.893 µM (active) | 6.07 µM (inactive) | 3.83 µM (inactive) | 6.9 µM (inactive) | 0.485 µM (active) | 15.2 µM (inactive) | 2.66 µM (inactive) | 7.62 µM (inactive) | 2.31 µM (inactive) | 8.2 µM (inactive) | 23.3 µM (inactive) | 7.16 µM (inactive) | 5.6 µM (inactive) | 2.92 µM (inactive)
N/C(=C\c1ccc(/C=C(\NC(=O)c2ccccc2)c2nc3c([nH]2)C(=O)c2ccccc2C3=O)cc1)c1nc2c([nH]1)C(=O)c1ccccc1C2=O | 10 µM (inactive) | 14.2 µM (inactive) | 8.47 µM (inactive) | 11.8 µM (inactive) | 14.3 µM (inactive) | 12.3 µM (inactive) | 4.84 µM (inactive) | 11.2 µM (inactive) | 17.8 µM (inactive) | 14.7 µM (inactive) | 13.7 µM (inactive) | 16.5 µM (inactive) | 18.1 µM (inactive) | – | 7.83 µM (inactive) | 14.5 µM (inactive) | 14.3 µM (inactive) | 16.5 µM (inactive) | 17.5 µM (inactive) | –
N=C(N)Nc1ncccc1[N+](=O)[O-] | 19.7 µM (inactive) | > 100 µM (inactive) | 74.6 µM (inactive) | > 100 µM (inactive) | > 31.6 µM (inactive) | > 100 µM (inactive) | > 100 µM (inactive) | > 100 µM (inactive) | 23.6 µM (inactive) | 40.6 µM (inactive) | 57.4 µM (inactive) | 38.9 µM (inactive) | 33.1 µM (inactive) | > 100 µM (inactive) | > 100 µM (inactive) | 38.4 µM (inactive) | > 100 µM (inactive) | > 100 µM (inactive) | 51.8 µM (inactive) | > 100 µM (inactive)
OCCNCN(CNCCO)c1nc(N(CNCCO)CNCCO)nc(N(CNCCO)CNCCO)n1 | – | 0.0711 µM (active) | 0.0578 µM (active) | 0.0676 µM (active) | 0.0745 µM (active) | 0.04 µM (active) | 0.0851 µM (active) | 0.0715 µM (active) | 0.0643 µM (active) | > 0.4 µM (active) | 0.137 µM (active) | – | 0.0916 µM (active) | 0.0838 µM (active) | 0.0743 µM (active) | – | 0.131 µM (active) | 0.082 µM (active) | 0.118 µM (active) | 0.0687 µM (active)
CCOC(=O)/C(C#N)=C1/SC(C(=O)N/N=C/c2ccc(OC)cc2)=C(N)N1c1ccccc1 | > 100 µM (inactive) | > 100 µM (inactive) | 97.5 µM (inactive) | – | > 100 µM (inactive) | > 100 µM (inactive) | > 100 µM (inactive) | – | 59.4 µM (inactive) | 31.3 µM (inactive) | > 100 µM (inactive) | 39.4 µM (inactive) | – | – | 3.82 µM (inactive) | > 100 µM (inactive) | – | 16.1 µM (inactive) | 72.8 µM (inactive) | 71 µM (inactive)
